Results: patent publication US20250244419A1, “INFUSION DEVICE FOR THE PREPARATION AND DELIVERY OF MRI PROBES” (The United States of America, as represented by the …, priority 2022, published 2025)

Assay: Relaxation dynamics of hyperpolarized [1-13C]pyruvate (build-up time Tb, T1)
Assay type: physicochemical
Text: In addition, the relaxation dynamics of the [1-^13C]pyruvate were also studied.
In addition, relaxation dynamics at earth field and 1.8 T are about the same as a non-fluorinated SABRE catalyst T1=28.9±1.6 s and 66.5±7 s, respectively.
In addition, relaxation dynamics at earth field and 1.8 T are about the same as a non-fluorinated SABRE catalyst T1=9.0±1.9 s and 16.0±1.4 s, respectively.

C[13C](=O)C(=O)O [[1-^13C]pyruvate, Sodium [1-^13C]-pyruvate]
total P13C (bound+free) build-up time Tb (NFBME / deuterated methanol mixture, catalyst of Example 4): 3.0 ± 0.8 s | total P13C (bound+free) build-up time Tb (methanol, catalyst of Example 4, DMSO co-ligand): 6.6 ± 3.0 s
